“Also recorded” adds a separate entry of the source. Like-named read-outs stand apart in the source and are kept apart here.
Experiments:
[1] = Pharmacokinetic study in dogs; type: in vivo; details: beagle dogs
Excerpt: FIG. 4 is a graph of plasma concentration versus time for both oral and iv dosing.

[2] = tested on: p-STAT3 (Y-705) and p-Src; assay: Western blot in RPMI-8226 myeloma cells; type: cell-based; details: 1 μM, 16 h
[3] = tested on: PI3K pathway signaling (AKT, 4EBP-1, p70S6) in H460 cells; assay: Western blot / in-cell-western of PI3K pathway signaling in H460 cells; type: cell-based
Protocol: (§1) Cell extracts were prepared in the presence of SDS and 2-mercaptoethanol and resolved in polyacrylamide gels. Proteins were transferred to nitrocellulose filter and blotting was done using standard procedures with blocking solutions (Li-Cor Bioscience) containing the indicated primary antibody. Primary antibodies against p-EGFR, EGFR, p-HER2, HER2, p-HER3, HER3, p-MET, MET, p-bRaf, p-cRaf, pMEK, MEK, p-ERK, ERK and tubulin were purchased from Cell Signaling Technology. Secondary antibody conjugated with IRdye 680, 800CW were used and the signal was detected with Li-Cor Odyssey Imager.
(§2) Immunocytochemistry was performed on cells grown in monolayer culture that were treated as indicated in the figure legends and then fixed in 4% (w/v) paraformaldehyde. After washing in 1×PBS, immunostaining was performed in Li-Cor blocking solution containing the indicated primary antibodies and IRDye 680- or 800CW-conjugated secondary antibodies. For in-cell-western, a Li-Cor Odyssey infrared imager was used for detection and quantification of results.
(§3) Cells were treated with DMSO alone (vehicle control) or containing test compounds for 1 h before Western blot or in-cell-western was performed.

[4] = tested on: HDAC activity (Ac-H3, Ac-Tub, Ac-p53, p53, p21) in H460 cells; assay: Western blot / in-cell-western of HDAC markers in H460 cells; type: cell-based
Protocol: as §1, §2, §3

[5] = tested on: OPM2 (multiple myeloma tumor cell line) xenograft tumors; assay: OPM2 xenograft tumor model; type: in vivo, nude mice; details: oral 50 mg/kg twice a day, five days per week
Protocol: SU-DHL4 (diffuse large B-cell lymphoma cell line), H2122 (human NSCLC cell line), Daudi (non-Hodgkin's lymphoma cell line), and OPM2 (multiple myeloma tumor cell line) cells were implanted into either nude or Scid (severe […] immune-deficient) mice. […]. […] The control groups were treated with vehicle using the same dosing schedule as the corresponding active group.
In another study, the Daudi tumor group was dosed at 50 mg/Kg twice a day for five days per week. […] The SU-DHL4 tumor group was dosed at 100 mg/Kg orally or 50 mg/Kg intravenously.
Tumors were measured during the study period with an electronic caliper, and body weights were measured twice a week. The following formula was used to calculate the tumor volume: […] Percentage of tumor volume change was used to describe compound activity over the treatment period.

[6] = Pharmacokinetics in SCID mice bearing Daudi tumors; type: in vivo; details: for Area under the Curve / Half-life / Cmax / Tmax: oral gavage; for Area under the Curve / Cmax / Tmax: dose not stated; for Half-life: dose of the table not stated (25, 50 or 100 mg/kg); for Cmax / Tmax: female, mouse
Protocol: Daudi (non-Hodgkin's lymphoma cell line) cells were implanted into female Scid (severe […] immune-deficient) mice.
At various time points following compound administration, three mice per time point were euthanized with CO2, and blood and tumor tissues were collected. Blood was collected into tubes containing sodium heparin. The plasma was separated via centrifugation. Plasma and tissues were stored at −80° C. for later analysis. A PE Sciex API-3000 LC-MS/MS system (Applied Biosystems, Inc., Foster City, Calif.) was used to analyze compound concentrations in plasma.

[7] = tested on: Salmonella typhimurium TA100
Protocol: The tester strains used in the mutagenicity assay were Salmonella typhimurium tester strains TA98 (for detecting frame-shift reverse mutation) and TA100 (for detecting point reverse mutation). The assay was conducted in both the presence and absence of S9 mixture along with concurrent vehicle (DMSO, 20 μl/well) and positive controls in duplicate using 6-well plates. […] A reproducible two-fold increase (>2× of vehicle control) of revertant colonies over the daily average control value is considered a positive response of gene mutation for each strain.
2-nitrofluorene and sodium azide served as the positive controls in the absence of S9 for TA98 and TA100 respectively. 2-Aminoanthracene served as the positive controls in the presence of S9 for TA98 and TA100.

[8] = Plasma, Daudi tumor-bearing Scid mice

**Q.** Which “Area under the Curve” value ([1]; IV 5 mg/kg, plasma) does the source give for `COc1ccc(-c2nc(N3CCOCC3)c3sc(CN(C)c4ncc(C(=O)NO)cn4)cc3n2)cn1` [Compound 1, N-hydroxy-2-(((2-(6-methoxypyridin-3-yl)-4-morpholinothieno[3,2-d]pyrimidin-6-yl)methyl)(methyl)amino)pyrimidine-5-carboxamide] here?
**A.** 2977.47 ng/mL * hr

**Q.** What about the Half-life ([1]; IV 5 mg/kg, plasma) of the same compound?
**A.** 1.85 h

**Q.** And the “Area under the Curve” value ([1]; PO Capsule 5 mg/kg, plasma)?
**A.** 450.4 ng/mL * hr

**Q.** What about the Half-life ([1]; PO Capsule 5 mg/kg, plasma) of the same compound?
**A.** 4.88 h

**Q.** And the bioavailability ([1]; dog, plasma, PO Capsule 5 mg/kg)?
**A.** 15.1%

**Q.** What about the Cmax ([1]; dog, IV 5 mg/kg, plasma) of the same compound?
**A.** 6160 ng/mL

**Q.** And the Cmax ([1]; dog, PO Capsule 5 mg/kg, plasma)?
**A.** 312 ng/mL

**Q.** And the “Plasma levels after oral dosing” value ([1]; oral 5 mg/kg in enteric capsules)?
**A.** Significant plasma levels

**Q.** What about the “p-STAT3 (Y-705) and p-Src” value [2] of the same compound?
**A.** inhibited p-STAT3 (Y-705) and p-Src

**Q.** And the “Phosphorylation of Akt” value [3]?
**A.** persistently and potently inhibits phosphorylation of Akt in a dose-dependent manner

**Q.** What about the “Activation of AKT, 4EBP-1 and p70S6” value ([3]; 1 μmon) of the same compound?
**A.** inhibits the activation of AKT and the downstream signaling proteins 4EBP-1 and p70S6

**Q.** And the “Levels of acetylated-tubulin, histone 3, p53 and p21 versus dose” value [4]?
**A.** increases levels of acetylated-tubulin (FIG. 7B), acetylated histone 3 (FIG. 7C), acetylated p53 (FIG. 7D), and acetylated p21 (FIG. 7E) in a dose-dependent manner

**Q.** What about the “Total p53 and p21 content” value [4] of the same compound?
**A.** upregulates total p53 and p21 content

**Q.** And the “Levels of acetylated histone 3, tubulin and p53” value ([4]; 1 μmon, 1 h)?
**A.** increases the levels of acetylated histone 3 (Ac-H3), tubulin (Ac-Tub), and p53 (Ac-p53)

**Q.** And the Tumor growth [5]?
**A.** efficacious

**Q.** What about the “Area under the Curve” value [6, 8] of the same compound?
**A.** 1899.26 ng/mL * hr

**Q.** What about the Half-life [6, 8] of the same compound?
**A.** 7.73 h

**Q.** And the “Area under the Curve” value ([6]; Tumor)?
**A.** 3973.56 ng/mL * hr

**Q.** What about the Half-life ([6]; Tumor) of the same compound?
**A.** 12.62 h

**Q.** And the Cmax ([6]; Tumor)?
**A.** 1040 ng/mL

**Q.** And the Tmax ([6]; Tumor)?
**A.** 0.1 h

**Q.** What about the Cmax [6, 8] of the same compound?
**A.** 2290 ng/mL

**Q.** And the Tmax [6, 8]?
**A.** 0.24 h

**Q.** And the “Distribution between plasma and tumor tissue” value ([6]; oral 25, 50 and 100 mg/kg)?
**A.** preferentially accumulates in tumor tissue in a dose dependent manner

**Q.** What about the “Plasma exposure versus dose” value ([6]; oral 25, 50 and 100 mg/kg, Daudi tumor-bearing Scid mice) of the same compound?
**A.** dose-dependent exposure

**Q.** And the “Background Lawn TA100” value ([7]; +S9, 62.5 μg/well)?
**A.** 4/4

**Q.** And the “Revertants per well TA100, Mean” value ([7]; +S9, 62.5 μg/well)?
**A.** 32

**Q.** And the “Revertants per well TA100, well 1” value ([7]; +S9, 62.5 μg/well)?
**A.** 34

**Q.** And the “Revertants per well TA100, well 2” value ([7]; +S9, 62.5 μg/well)?
**A.** 30

**Q.** What about the “Background Lawn TA100” value ([7]; +S9, 125 μg/well) of the same compound?
**A.** 4/4

**Q.** And the “Revertants per well TA100, Mean” value ([7]; +S9, 125 μg/well)?
**A.** 29

**Q.** What about the “Revertants per well TA100, well 1” value ([7]; +S9, 125 μg/well) of the same compound?
**A.** 28

**Q.** What about the “Revertants per well TA100, well 2” value ([7]; +S9, 125 μg/well) of the same compound?
**A.** 30

**Q.** What about the “Background Lawn TA100” value ([7]; +S9, 250 μg/well) of the same compound?
**A.** 4/4

**Q.** What about the “Revertants per well TA100, Mean” value ([7]; +S9, 250 μg/well) of the same compound?
**A.** 29

**Q.** And the “Revertants per well TA100, well 1” value ([7]; +S9, 250 μg/well)?
**A.** 30

**Q.** What about the “Revertants per well TA100, well 2” value ([7]; +S9, 250 μg/well) of the same compound?
**A.** 28

**Q.** What about the “Background Lawn TA100” value ([7]; +S9, 500 μg/well) of the same compound?
**A.** 3,sp/3,sp

**Q.** What about the “Revertants per well TA100, Mean” value ([7]; +S9, 500 μg/well) of the same compound?
**A.** 35

**Q.** What about the “Revertants per well TA100, well 1” value ([7]; +S9, 500 μg/well) of the same compound?
**A.** 32

**Q.** What about the “Revertants per well TA100, well 2” value ([7]; +S9, 500 μg/well) of the same compound?
**A.** 37

**Q.** What about the “Background Lawn TA100” value ([7]; +S9, 1000 μg/well) of the same compound?
**A.** 3,mp/3,mp

**Q.** And the “Revertants per well TA100, Mean” value ([7]; +S9, 1000 μg/well)?
**A.** 34

**Q.** What about the “Revertants per well TA100, well 1” value ([7]; +S9, 1000 μg/well) of the same compound?
**A.** 33

**Q.** And the “Revertants per well TA100, well 2” value ([7]; +S9, 1000 μg/well)?
**A.** 34

**Q.** And the “Mutagenic response TA100” value ([7]; presence and absence of S9, up to 1000 μg/well)?
**A.** no evidence of a significant increase in the mean number of revertant colonies; also recorded: did not induce a positive mutagenic response

**Q.** What about the “Background Lawn TA100” value ([7]; −S9, 62.5 μg/well) of the same compound?
**A.** 4/4

**Q.** And the “Revertants per well TA100, Mean” value ([7]; −S9, 62.5 μg/well)?
**A.** 32

**Q.** What about the “Revertants per well TA100, well 1” value ([7]; −S9, 62.5 μg/well) of the same compound?
**A.** 34

**Q.** What about the “Revertants per well TA100, well 2” value ([7]; −S9, 62.5 μg/well) of the same compound?
**A.** 30

**Q.** What about the “Background Lawn TA100” value ([7]; −S9, 125 μg/well) of the same compound?
**A.** 4/4

**Q.** What about the “Revertants per well TA100, Mean” value ([7]; −S9, 125 μg/well) of the same compound?
**A.** 33

**Q.** What about the “Revertants per well TA100, well 1” value ([7]; −S9, 125 μg/well) of the same compound?
**A.** 32

**Q.** And the “Revertants per well TA100, well 2” value ([7]; −S9, 125 μg/well)?
**A.** 34

**Q.** And the “Background Lawn TA100” value ([7]; −S9, 250 μg/well)?
**A.** 4,sp/4,sp

**Q.** What about the “Revertants per well TA100, Mean” value ([7]; −S9, 250 μg/well) of the same compound?
**A.** 32

**Q.** What about the “Revertants per well TA100, well 1” value ([7]; −S9, 250 μg/well) of the same compound?
**A.** 34

**Q.** And the “Revertants per well TA100, well 2” value ([7]; −S9, 250 μg/well)?
**A.** 29

**Q.** And the “Background Lawn TA100” value ([7]; −S9, 500 μg/well)?
**A.** 3,sp/3,sp

**Q.** What about the “Revertants per well TA100, Mean” value ([7]; −S9, 500 μg/well) of the same compound?
**A.** 32

**Q.** And the “Revertants per well TA100, well 1” value ([7]; −S9, 500 μg/well)?
**A.** 33

**Q.** And the “Revertants per well TA100, well 2” value ([7]; −S9, 500 μg/well)?
**A.** 31

**Q.** What about the “Background Lawn TA100” value ([7]; −S9, 1000 μg/well) of the same compound?
**A.** 3,mp/3,mp

**Q.** And the “Revertants per well TA100, Mean” value ([7]; −S9, 1000 μg/well)?
**A.** 27

**Q.** What about the “Revertants per well TA100, well 1” value ([7]; −S9, 1000 μg/well) of the same compound?
**A.** 28

**Q.** And the “Revertants per well TA100, well 2” value ([7]; −S9, 1000 μg/well)?
**A.** 26

From patent publication US11654136B2, “Phosphoinositide 3-kinase inhibitor with a zinc binding moiety” (Curis, Inc., priority 2011, dated 2023)
